The source of these data is US20240209028A1, “CNP COMPOUNDS” (priority 2022, published 2024).

By EC50 is commonly meant the concentration needed to bring the measured effect to its halfway point. A low value points to a more potent agent.

The structures appear in SMILES notation. Starred links: 1 amine or outer side, 2 acyl side, 3 side chain; linkers in the order of their positions; H or OH if unused. Positions of bridges follow the written chain, without caps; N, C: chain ends. Non-standard residues stand in square brackets, D forms with d. Residues, ends and D or L forms follow the SMILES beside them. *: point of attachment. C18 diacid = O=C(O)CCCCCCCCCCCCCCCCC(=O)*; γGlu = O=C(O)[C@H](CCC(=O)[*:2])N[*:1]; AEEA = NCCOCCOCC(=O)O

The target in one experiment is T1, human natriuretic peptide receptor 2 (hNPR2) (Homo sapiens, UniProt P20594).
T1 construct: expressed in transfected cells; host or cells: HEK293 (ATCC CRL-1573), clone 35, co-transfected with pGloSensor-42F
T1 sequence (P20594 23-1047): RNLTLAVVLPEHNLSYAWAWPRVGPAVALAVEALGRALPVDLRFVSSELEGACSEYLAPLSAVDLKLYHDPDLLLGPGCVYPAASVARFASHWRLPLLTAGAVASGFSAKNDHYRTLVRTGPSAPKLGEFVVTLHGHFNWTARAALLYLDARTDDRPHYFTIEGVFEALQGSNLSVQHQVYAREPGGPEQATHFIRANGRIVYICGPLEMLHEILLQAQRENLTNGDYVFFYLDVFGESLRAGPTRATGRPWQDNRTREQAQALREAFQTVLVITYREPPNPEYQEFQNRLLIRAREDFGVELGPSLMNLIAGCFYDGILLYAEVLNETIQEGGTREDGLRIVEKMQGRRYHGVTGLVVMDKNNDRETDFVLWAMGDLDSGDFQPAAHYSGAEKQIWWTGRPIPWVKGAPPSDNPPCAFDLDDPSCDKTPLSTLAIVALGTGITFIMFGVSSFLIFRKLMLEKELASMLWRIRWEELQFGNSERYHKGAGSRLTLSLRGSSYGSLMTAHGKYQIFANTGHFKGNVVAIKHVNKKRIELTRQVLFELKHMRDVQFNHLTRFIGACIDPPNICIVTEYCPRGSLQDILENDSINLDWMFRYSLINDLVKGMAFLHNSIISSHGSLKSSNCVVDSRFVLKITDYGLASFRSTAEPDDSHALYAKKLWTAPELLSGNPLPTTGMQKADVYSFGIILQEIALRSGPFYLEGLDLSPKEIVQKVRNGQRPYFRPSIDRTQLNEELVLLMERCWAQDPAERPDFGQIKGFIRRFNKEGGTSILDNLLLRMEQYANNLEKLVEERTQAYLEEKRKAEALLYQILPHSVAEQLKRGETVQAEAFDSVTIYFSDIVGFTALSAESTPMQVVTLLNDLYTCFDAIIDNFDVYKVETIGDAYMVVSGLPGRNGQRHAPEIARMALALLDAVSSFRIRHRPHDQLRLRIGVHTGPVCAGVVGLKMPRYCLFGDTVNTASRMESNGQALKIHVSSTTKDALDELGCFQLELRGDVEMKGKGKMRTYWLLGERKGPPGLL
Kind of experiment: In vitro hNPR2 activity assay (cGMP GloSensor reporter, HEK293). Conditions: 0% HSA; HEK293-hNPR2/GloSensor cells. The format is cell-based. The essentials: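 Potency is the EC50 from a four-parameter logistic fit, also expressed relative to the in-plate CNP22 control (×100), with at least two replicates. Compounds (ten concentrations, […], HSA-free diluent with 1% OVA, 0.01% Tween20) were incubated 30 min at 37 °C on HEK293 cells co-expressing hNPR2 and a GloSensor cGMP luciferase. Luminescence detected with Bright-Glo.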
For the compound `CC[C@H](C)[C@@H]1NC(=O)[C@H](CCCNC(=N)N)NC(=O)[C@H](CC(=O)O)NC(=O)[C@H](CC(C)C)NC(=O)[C@H](CCCCN)NC(=O)[C@H](CC(C)C)NC(=O)CNC(=O)[C@H](Cc2ccccc2)NC(=O)[C@@H](NC(=O)CNC(=O)[C@H](CCC(N)=O)NC(=O)[C@H](CO)NC(=O)[C@H](CC(C)C)NC(=O)CNC(=O)[C@H](Cc2c[nH]cn2)NC(=O)[C@H](Cc2c[nH]cn2)NC(=O)[C@H](CCC(N)=O)NC(=O)[C@H](C)NC(=O)CNC(=O)[C@H](CCCCN)NC(=O)[C@H](Cc2ccc(O)cc2)NC(=O)COCCOCCNC(=O)COCCOCCNC(=O)CC[C@H](NC(=O)CCCCCCCCCCCCCCCCC(=O)O)C(=O)O)CSSC[C@@H](C(=O)O)NC(=O)CNC(=O)[C@H](CC(C)C)NC(=O)CNC(=O)[C@H](CO)NC(=O)[C@H](CC(C)C)NC(=O)[C@H](CO)NC(=O)CNC1=O` [compound 1340] ({C18 diacid-γGlu-AEEA-AEEA}-YKGAQHHGLSQGCFGLKLDRIGSLSGLGC-OH; disulfide 13-29), a half-maximal effect (EC50) was put at 0.18 nM.

Still in this experiment, the particulars now being: potency relative to CNP22 (0065).
As to `CC[C@H](C)[C@@H]1NC(=O)[C@H](CCCNC(=N)N)NC(=O)[C@H](CC(=O)O)NC(=O)[C@H](CC(C)C)NC(=O)[C@@H]2CCCN2C(=O)[C@H](CC(C)C)NC(=O)CNC(=O)[C@H](Cc2ccccc2)NC(=O)[C@@H](NC(=O)CNC(=O)[C@H](CCCCN)NC(=O)[C@H](CO)NC(=O)[C@@H](NC(=O)CNC(=O)[C@@H](NC(=O)[C@H](CCCCN)NC(=O)[C@H](CCC(N)=O)NC(=O)[C@H](C)NC(=O)CNC(=O)[C@H](Cc2c[nH]cn2)NC(=O)[C@H](Cc2ccc(O)cc2)NC(=O)[C@H](CCCCN)NC(=O)[C@H](CCCNC(=N)N)NC(=O)[C@H](C)NC(=O)COCCOCCNC(=O)COCCOCCNC(=O)CC[C@H](NC(=O)CC[C@H](NC(=O)CC[C@H](NC(=O)CCCCCCCCCCCCCCCCC(=O)O)C(=O)O)C(=O)O)C(=O)O)[C@@H](C)O)C(C)C)CSSC[C@@H](C(=O)O)NC(=O)CNC(=O)[C@H](CC(C)C)NC(=O)CNC(=O)[C@H](CO)NC(=O)[C@H](CC(C)C)NC(=O)[C@H](CO)NC(=O)CNC1=O` [compound 1423] ({C18 diacid-γGlu-γGlu-γGlu-AEEA-AEEA}-ARKYHGAQKTGVSKGCFGLPLDRIGSLSGLGC-OH; disulfide 16-32), the “hNPR2 0% HSA. [EC50% rel CNP]” value came to 37.7%.

Regarding `CC[C@H](C)[C@@H]1NC(=O)[C@H](CCCNC(=N)N)NC(=O)[C@H](CC(=O)O)NC(=O)[C@H](CC(C)C)NC(=O)[C@H](CCCCN)NC(=O)[C@H](CC(C)C)NC(=O)CNC(=O)[C@H](Cc2ccccc2)NC(=O)[C@@H](NC(=O)CNC(=O)[C@H](CCC(N)=O)NC(=O)[C@H](CO)NC(=O)[C@H](CC(C)C)NC(=O)CNC(=O)[C@H](Cc2c[nH]cn2)NC(=O)[C@H](Cc2c[nH]cn2)NC(=O)[C@H](CCC(N)=O)NC(=O)[C@H](C)NC(=O)CNC(=O)[C@H](CCCCN)NC(=O)[C@H](Cc2ccc(O)cc2)NC(=O)COCCOCCNC(=O)COCCOCCNC(=O)CC[C@H](NC(=O)CCCCCCCCCCCCCCCCC(=O)O)C(=O)O)CSSC[C@@H](C(=O)O)NC(=O)CNC(=O)[C@H](CC(C)C)NC(=O)CNC(=O)[C@H](CO)NC(=O)[C@H](CC(C)C)NC(=O)[C@H](CO)NC(=O)CNC1=O` [compound 1340] ({C18 diacid-γGlu-AEEA-AEEA}-YKGAQHHGLSQGCFGLKLDRIGSLSGLGC-OH; disulfide 13-29), the “hNPR2 0% HSA. [EC50% rel CNP]” value is recorded as 44.4%.

Take `CC[C@H](C)[C@@H]1NC(=O)[C@H](CCCNC(=N)N)NC(=O)[C@H](CC(=O)O)NC(=O)[C@H](CC(C)C)NC(=O)[C@@H]2CCCN2C(=O)[C@H](CC(C)C)NC(=O)CNC(=O)[C@H](Cc2ccccc2)NC(=O)[C@@H](NC(=O)CNC(=O)[C@H](CO)NC(=O)[C@H](CO)NC(=O)[C@H](CC(C)C)NC(=O)CNC(=O)[C@H](CCCCN)NC(=O)[C@H](CCC(=O)O)NC(=O)[C@H](CCC(N)=O)NC(=O)[C@H](C)NC(=O)CNC(=O)[C@H](CCC(=O)O)NC(=O)[C@H](Cc2ccc(O)cc2)NC(=O)COCCOCCNC(=O)COCCOCCNC(=O)CC[C@H](NC(=O)CCCCCCCCCCCCCCCCC(=O)O)C(=O)O)CSSC[C@@H](C(=O)O)NC(=O)CNC(=O)[C@H](CC(C)C)NC(=O)CNC(=O)[C@H](CO)NC(=O)[C@H](CC(C)C)NC(=O)[C@H](CO)NC(=O)CNC1=O` [compound 1228] ({C18 diacid-γGlu-AEEA-AEEA}-YEGAQEKGLSSGCFGLPLDRIGSLSGLGC-OH; disulfide 13-29): the “hNPR2 0% HSA. [EC50% rel CNP]” value came out at 12.3%.

In the case of `CC[C@H](C)[C@@H]1NC(=O)[C@H](CCCNC(=N)N)NC(=O)[C@H](CC(=O)O)NC(=O)[C@H](CC(C)C)NC(=O)[C@@H]2CCCN2C(=O)[C@H](CC(C)C)NC(=O)CNC(=O)[C@H](Cc2ccccc2)NC(=O)[C@@H](NC(=O)CNC(=O)[C@H](CCC(N)=O)NC(=O)[C@H](CO)NC(=O)[C@H](CC(C)C)NC(=O)CNC(=O)[C@H](CCCCN)NC(=O)[C@H](CCCCN)NC(=O)[C@H](CCC(N)=O)NC(=O)[C@H](C)NC(=O)CNC(=O)[C@H](CCCCN)NC(=O)[C@H](Cc2ccc(O)cc2)NC(=O)COCCOCCNC(=O)COCCOCCNC(=O)COCCOCCNC(=O)COCCOCCNC(=O)[C@H](CCC(=O)O)NC(=O)[C@H](CCC(=O)O)NC(=O)[C@H](CCC(=O)O)NC(=O)CCCCCCCCCCCCCCCCC(=O)O)CSSC[C@@H](C(=O)O)NC(=O)CNC(=O)[C@H](CC(C)C)NC(=O)CNC(=O)[C@H](CO)NC(=O)[C@H](CC(C)C)NC(=O)[C@H](CO)NC(=O)CNC1=O` [compound 1481] ({C18 diacid}-EEE[AEEA][AEEA][AEEA][AEEA]YKGAQKKGLSQGCFGLPLDRIGSLSGLGC-OH; disulfide 20-36), the “hNPR2 0% HSA. [EC50% rel CNP]” value is listed as 35.1%.

`CC[C@H](C)[C@@H]1NC(=O)[C@H](CCCNC(=N)N)NC(=O)[C@H](CC(=O)O)NC(=O)[C@H](CC(C)C)NC(=O)[C@@H]2CCCN2C(=O)[C@H](CC(C)C)NC(=O)CNC(=O)[C@H](Cc2ccccc2)NC(=O)[C@@H](NC(=O)CNC(=O)[C@H](CO)NC(=O)[C@H](CO)NC(=O)[C@H](CC(C)C)NC(=O)CNC(=O)[C@@H](NC(=O)[C@H](CCCCN)NC(=O)[C@H](CCC(N)=O)NC(=O)[C@H](C)NC(=O)CNC(=O)[C@H](Cc2c[nH]cn2)NC(=O)[C@H](Cc2ccc(O)cc2)NC(=O)COCCOCCNC(=O)COCCOCCNC(=O)CC[C@H](NC(=O)CCCCCCCCCCCCCCCCC(=O)O)C(=O)O)[C@@H](C)O)CSSC[C@@H](C(=O)O)NC(=O)CNC(=O)[C@H](CC(C)C)NC(=O)CNC(=O)[C@H](CO)NC(=O)[C@H](CC(C)C)NC(=O)[C@H](CO)NC(=O)CNC1=O` [compound 1302] ({C18 diacid-γGlu-AEEA-AEEA}-YHGAQKTGLSSGCFGLPLDRIGSLSGLGC-OH; disulfide 13-29): the “hNPR2 0% HSA. [EC50% rel CNP]” value is listed as 26.5%.

Turning to `CC[C@H](C)[C@@H]1NC(=O)[C@H](CCCNC(=N)N)NC(=O)[C@H](CC(=O)O)NC(=O)[C@H](CC(C)C)NC(=O)[C@@H]2CCCN2C(=O)[C@H](CC(C)C)NC(=O)CNC(=O)[C@H](Cc2ccccc2)NC(=O)[C@@H](NC(=O)CNC(=O)[C@H](CCCCN)NC(=O)[C@H](CO)NC(=O)[C@H](CC(C)C)NC(=O)CNC(=O)[C@H](CCCCN)NC(=O)[C@H](CCCCN)NC(=O)[C@H](CCC(N)=O)NC(=O)[C@H](C)NC(=O)CNC(=O)[C@H](Cc2c[nH]cn2)NC(=O)[C@H](CCC(=O)O)NC(=O)COCCOCCNC(=O)COCCOCCNC(=O)CC[C@H](NC(=O)CCCCCCCCCCCCCCCCC(=O)O)C(=O)O)CSSC[C@@H](C(=O)O)NC(=O)CNC(=O)[C@H](CC(C)C)NC(=O)CNC(=O)[C@H](CO)NC(=O)[C@H](CC(C)C)NC(=O)[C@H](CO)NC(=O)CNC1=O` [compound 1309] ({C18 diacid-γGlu-AEEA-AEEA}-EHGAQKKGLSKGCFGLPLDRIGSLSGLGC-OH; disulfide 13-29), the “hNPR2 0% HSA. [EC50% rel CNP]” value is given as 33.3%.

With `CC[C@H](C)[C@@H]1NC(=O)[C@H](CCCNC(=N)N)NC(=O)[C@H](CC(=O)O)NC(=O)[C@H](CC(C)C)NC(=O)[C@@H]2CCCN2C(=O)[C@H](CC(C)C)NC(=O)CNC(=O)[C@H](Cc2ccccc2)NC(=O)[C@@H](NC(=O)CNC(=O)[C@H](CO)NC(=O)[C@H](CO)NC(=O)[C@H](CC(C)C)NC(=O)CNC(=O)[C@H](CCCCN)NC(=O)[C@H](CCC(=O)O)NC(=O)[C@H](CCC(N)=O)NC(=O)[C@H](C)NC(=O)CNC(=O)[C@H](Cc2c[nH]cn2)NC(=O)[C@H](Cc2ccc(O)cc2)NC(=O)COCCOCCNC(=O)COCCOCCNC(=O)CC[C@H](NC(=O)CCCCCCCCCCCCCCCCC(=O)O)C(=O)O)CSSC[C@@H](C(=O)O)NC(=O)CNC(=O)[C@H](CC(C)C)NC(=O)CNC(=O)[C@H](CO)NC(=O)[C@H](CC(C)C)NC(=O)[C@H](CO)NC(=O)CNC1=O` [compound 1242] ({C18 diacid-γGlu-AEEA-AEEA}-YHGAQEKGLSSGCFGLPLDRIGSLSGLGC-OH; disulfide 13-29), the “hNPR2 0% HSA. [EC50% rel CNP]” value is recorded as 5.4%.
